Patent publication US20200270265A1, “TETRACYCLIC PYRIDONE COMPOUNDS AS ANTIVIRALS” (Novartis AG, priority 2016, published 2020)

Columns and labels:
Assay type in all cases: in vivo
[1] = Pharmacokinetics in mice (iv and PO); settings: iv 1.0 mg/kg, PO 2.0 mg/kg
[2] = Pharmacokinetics in dog (iv and PO); settings: iv 0.5 mg/kg, PO 1.0 mg/kg
[3] = Pharmacokinetics in rat (iv and PO); settings: iv 1.0 mg/kg, PO 2.0 mg/kg

SMILES | Oral BA [1] [% F] | T1/2term [1] [h] | Oral BA [2] [% F] | T1/2term [2] [h] | Oral BA [3] [% F] | T1/2term [3] [h]
COCCCOc1cc2c(cc1OC)-c1cc(=O)c(C(=O)O)cn1[C@H]1[C@@H]2CCC1(C)C [Compound 1.1, (3aS,12bR)-10-methoxy-11-(3-methoxypropoxy)-3,3-dimethyl-7-oxo-1,2,3,3a,7,12b-hexahydrocyclopenta[c]pyrido[2,1-a]isoquinoline-6-carboxylic acid] | 59 | 1.6 | 93 | 5.9 | 97 | 2.4
COCCCOc1cc2c(cc1OC)-c1c(F)c(=O)c(C(=O)O)cn1[C@H]1[C@@H]2CCC1(C)C [Compound 3.1, (3aS,12bR)-8-fluoro-10-methoxy-11-(3-methoxypropoxy)-3,3-dimethyl-7-oxo-1,2,3,3a,7,12b-hexahydrocyclopenta[c]pyrido[2,1-a]isoquinoline-6-carboxylic acid] | 87 | 3.8 | 96 | 7.2 | 57 | 9.2
COCCCOc1cc2c(cc1OC)-c1cc(=O)c(C(=O)O)cn1[C@H]1[C@@H]2OCC1(C)C [Compound 4.1, (3aR,12bR)-10-methoxy-11-(3-methoxypropoxy)-3,3-dimethyl-7-oxo-3,3a,7,12b-tetrahydro-2H-furo[3,2-c]pyrido[2,1-a]isoquinoline-6-carboxylic acid] | 100 | 1.8 | 94 |  | 65 | 1.2
